Here are results for four compounds from paper PMC12261233, “Photoactivatable Cyclometalated Ir(III) Compound Penetrates the Blood-Brain Barrier in 3D Spheroidal and Advanced 3D Organoid Models of Inherently Resistant and Aggressive Brain Tumors” (ACS Pharmacology & Translational Science, 2025).

What is called IC50 is the midpoint of a concentration-inhibition curve.

Common to all, as to type: cell-based, human
The test system of assay [1] is U87MG spheroids. The experiment in a line: Antiproliferative activity, 3D spheroids, CellTiter-Glo 3D assay. The note with it: for PI (phototoxicity index) 3D: IC50 dark / IC50 420 nm irradiated; for IC50: U87MG 3D spheroids, 90 min treatment, CellTiter-Glo 3D; for TMI (3D/2D): ratio of IC50 for 3D and 2D models under irradiation. The procedure:
The antiproliferative activity of the compounds under investigation was assessed using the Sulforhodamine B (SRB) assay on both 2D cell monolayers and 3D spheroids. For the 2D cell monolayer assay, cells were seeded in 96-well tissue culture plates at a density of 3 × 10^3 cells/well in 100 μL of culture medium. Following overnight incubation in a humidified CO2 incubator, the medium was replaced, and the cells were treated with the investigated compounds in a final volume of 200 μL/well of Earle’s Balanced Salt Solution (EBSS). The cells were then exposed to the tested compounds for 1.5 h under dark conditions (5% CO2, 37 °C) and subsequently irradiated with blue light (420 nm) for 30 min at an intensity of 58 W/m^2. After treatment, the samples were washed with Phosphate-Buffered Saline (PBS) and replenished with 200 μL of culture medium. Following an additional 70-h incubation, the cells were washed with PBS, fixed with trichloroacetic acid at 4 °C for 1 h, and stained with 0.4% SRB dye for 30 min. The stained cells were dissolved with Tris (10 mM), and the cell viability was assessed by measuring the absorbance at 570 nm using an Absorbance Reader (SPARK TECAN, SCHOELLER). The absorbance readings were then converted to the percentage of control (% cell survival), and the antiproliferative effects were expressed as IC50 values, which were calculated from curves plotting cell survival (%) versus drug concentration (μM) (IC50 = the concentration of the agent that inhibits cell growth by 50%). For experiments with 3D spheroids, 2500 single cells/well were seeded on ultralow attachment U-shape 96-well plates (Corning, USA) and cultured for 72 h in 3D forming medium DMEM-F12 ham medium supplemented with growth and spheroid forming factors: 2% B27 (Thermo Fisher Scientific Inc., MA, USA), epidermal growth factor (EGF; Sigma-Aldrich, Germany, 20 ng mL^–1), fibroblast growth factor (FGF2; Sigma-Aldrich, Germany, 10 ng mL^–1), and BSA (0.15%). After the 72-h spheroid formation period, the samples were treated and irradiated as described for the 2D cultures. Subsequently, the samples were cultured in the 3D forming medium for an additional 70 h, and the antiproliferative potency of the tested compounds against spheroids was determined by assessing changes in IC50 values using the CellTiterGlo-3D assay (Promega). The luminescence signal was detected using the plate reader SPARK (Tecan, Manedorf, Switzerland), and the IC50 values were calculated from the survival curves. All experiments were conducted in triplicate to ensure the reliability and reproducibility of the results. Furthermore, the concentrations of the compounds in the medium during the treatment were verified using Flame Atomic Absorption Spectroscopy (FAAS) or Inductively Coupled Plasma Mass Spectrometry (ICP-MS).
The antiproliferative activity (IC50 valuesa) of the investigated compounds determined in 2D and 3D models of U87MG cellsb
Dark Irradiated PId Dark Irradiated PIe (3D/2D) […]
a Concentration that causes 50% inhibition of cell proliferation. b Cell monolayer or generated 3D spheroids were treated for 90 min with increasing concentrations of the investigated compounds, followed by 30 min of irradiation with blue light (420 nm; 58 Wm-2) and 70 h of drug-free incubation. c IC50 values were determined by SRB assay. d IC50 values were determined by CellTiter-Glo® 3D chemiluminescent assay. e PI - phototoxicity index was calculated as the ratio of IC50 determined under the dark conditions / IC50 determined for 420 […]
f TMI – tissue-mass index was calculated as the ratio of IC50 values determined for 3D and 2D models under irradiation conditions.

In a further assay the test system is U87MG cells. The assay can be described thus: Antiproliferative activity, 2D monolayer, SRB assay. As to conditions: for PI (phototoxicity index) 2D: IC50 dark / IC50 420 nm irradiated; for IC50: U87MG 2D monolayer, 90 min treatment, SRB. The procedure:
The antiproliferative activity of the compounds under investigation was assessed using the Sulforhodamine B (SRB) assay on both 2D cell monolayers and 3D spheroids. For the 2D cell monolayer assay, cells were seeded in 96-well tissue culture plates at a density of 3 × 10^3 cells/well in 100 μL of culture medium. Following overnight incubation in a humidified CO2 incubator, the medium was replaced, and the cells were treated with the investigated compounds in a final volume of 200 μL/well of Earle’s Balanced Salt Solution (EBSS). The cells were then exposed to the tested compounds for 1.5 h under dark conditions (5% CO2, 37 °C) and subsequently irradiated with blue light (420 nm) for 30 min at an intensity of 58 W/m^2. After treatment, the samples were washed with Phosphate-Buffered Saline (PBS) and replenished with 200 μL of culture medium. Following an additional 70-h incubation, the cells were washed with PBS, fixed with trichloroacetic acid at 4 °C for 1 h, and stained with 0.4% SRB dye for 30 min. The stained cells were dissolved with Tris (10 mM), and the cell viability was assessed by measuring the absorbance at 570 nm using an Absorbance Reader (SPARK TECAN, SCHOELLER). […] After the 72-h spheroid formation period, the samples were treated and irradiated as described for the 2D cultures. […] The luminescence signal was detected using the plate reader SPARK (Tecan, Manedorf, Switzerland), and the IC50 values were calculated from the survival curves. All experiments were conducted in triplicate to ensure the reliability and reproducibility of the results. Furthermore, the concentrations of the compounds in the medium during the treatment were verified using Flame Atomic Absorption Spectroscopy (FAAS) or Inductively Coupled Plasma Mass Spectrometry (ICP-MS). […]
drug-free incubation. c IC50 values were determined by SRB assay. d IC50 values were determined by CellTiter-Glo® 3D chemiluminescent assay. e PI - phototoxicity index was calculated as the ratio of IC50 determined under the dark conditions / IC50 determined for 420 […]
models under irradiation conditions.
For orientation: The SRB assay estimates cell density from bound dye.

Assay [2] has as its system U87MG spheroids. The experiment in a line: Distribution of iridium compounds in Matrigel-embedded spheroids (confocal). The note with it: 5 μM, 3 h. The procedure:
Spheroids derived from U87MG cells were encapsulated in a Matrigel matrix. The U87MG cells were incubated for 72 h under 3D conditions using ULA 96-well U-shaped plates (Corning) and cultured in DMEM-F12 ham medium supplemented with growth factors conducive to spheroid formation: 2% B27 (Thermo Fisher Scientific Inc., MA, USA), epidermal growth factor (EGF; Sigma-Aldrich, Germany, 20 ng mL^–1), fibroblast growth factor (FGF2; Sigma-Aldrich, Germany, 10 ng mL^–1), and BSA (0.15%). Following the 72-h spheroid formation phase, the samples were embedded in a Matrigel matrix and allowed to gel completely (30 min). Afterward, the spheroids were further cultured for 24 h in confocal Petri dishes (Mattek) with 3D forming medium. Subsequently, the samples were exposed to 5 μM of the tested compounds 3, 4, and 5 for 3 h. The samples were then rinsed, transferred to a fresh 3D forming medium, and visualized using a confocal microscope (Leica CM SP8 SMD, Leica, Germany). Imaging was conducted in defined Z-stacks with a 20 μm step, and fluorescence intensities were captured and analyzed using ImageJ software.

Setting [3] is: dark, 70 h drug-free, read-out: IC50 3D Dark.
Setting [4] is: 30 min blue light 420 nm 58 W m-2, 70 h drug-free, read-out: IC50 3D Irradiated.
[5] abbreviates: dark, 70 h drug-free incubation, read-out: IC50 2D Dark.
Setting [6] is: 30 min blue light 420 nm 58 W m-2, 70 h drug-free, read-out: IC50 2D Irradiated.

Where two headings read alike, the source gives them in different places.

Turning to `CCCCn1c2[n+](c3cc(C(=O)OC)ccc31)[Ir-3]13([Cl])([c]4ccccc4-2)[n+]2ccccc2-c2cc(-c4ccc(C)cc4)cc([n+]21)-c1cccc[n+]13.F[P-](F)(F)(F)(F)F` [Ir4], the “PI (phototoxicity index) 3D” value in the assay on U87MG spheroids [1] is listed as 13.1. Besides, the IC50 in the assay with U87MG spheroids [1] (setting [3]) was 27.6 ± 4 µM; with U87MG spheroids [1] (setting [4]) it was 2.1 ± 0.2 µM; in the assay with U87MG cells (setting [5]) it was 21.3 ± 1.4 µM; with U87MG cells (setting [6]), 0.52 ± 0.08 µM. In the assay with U87MG spheroids [1], the “TMI (3D/2D)” value was determined as 4. Besides, the “PI (phototoxicity index) 2D” value with U87MG cells came out at 41. In addition, the distribution within spheroid entry in the assay on U87MG spheroids [2] is listed as “most uniform distribution”.
`Cn1nnc2c(C(N)=O)ncn2c1=O` [Temozolomide, reference compound]: the IC50 is 95.3 ± 6.4 µM with U87MG spheroids [1] (Homo sapiens, U-87 MG, light or radiation study, 30 min blue light 420 nm 58 W m-2, 70 h drug-free, read-out: IC50 3D Irradiated); at least 100 µM in the assay on U87MG spheroids [1] (Homo sapiens, U-87 MG, dark, 70 h drug-free, read-out: IC50 3D Dark); at least 100 µM in the assay on U87MG cells (Homo sapiens, U-87 MG, dark, 70 h drug-free incubation, read-out: IC50 2D Dark).
Take `Cc1ccc(-c2cc3[n+]4c(c2)-c2cccc[n+]2[Ir-3]42([Cl])([c]4cc5ccccc5cc4-c4n(Cc5ccc(C(F)(F)F)cc5)c5ccccc5[n+]42)[n+]2ccccc2-3)cc1.F[P-](F)(F)(F)(F)F` [Ir3]: the “PI (phototoxicity index) 3D” value in the assay with U87MG spheroids [1] is 6.1. The IC50 in the assay on U87MG spheroids [1] (setting [3]) worked out at 36.6 ± 4.5 µM; in the assay on U87MG spheroids [1] (setting [4]), 6 ± 1 µM; in the assay with U87MG cells (setting [5]), 30.4 ± 4.3 µM; with U87MG cells (setting [6]), 0.67 ± 0.08 µM. Also, in the assay on U87MG spheroids [1], the “TMI (3D/2D)” value turned out to be 9.0. Moreover, the “PI (phototoxicity index) 2D” value in the assay with U87MG cells came out at 45. In addition, the distribution within spheroid entry in the assay on U87MG spheroids [2] is given as “primarily localized in the outer regions of the spheroids”.
In the case of `Cc1ccc(-c2cc3[n+]4c(c2)-c2cccc[n+]2[Ir-3]42([Cl])([c]4c(ccc5c4OCO5)-c4n(Cc5ccc(C(F)(F)F)cc5)c5ccccc5[n+]42)[n+]2ccccc2-3)cc1.F[P-](F)(F)(F)(F)F` [Ir5], the “PI (phototoxicity index) 3D” value with U87MG spheroids [1] is recorded as 4.5. The 50% inhibitory concentration (IC50) was determined as 32.3 ± 3.3 µM with U87MG spheroids [1] (setting [3]), 7.1 ± 0.8 µM in the assay on U87MG spheroids [1] (setting [4]), 25.3 ± 2.1 µM with U87MG cells (setting [5]) and 0.42 ± 0.03 µM in the assay on U87MG cells (setting [6]). Further, the “TMI (3D/2D)” value in the assay with U87MG spheroids [1] was found to be 16.9. Besides, the “PI (phototoxicity index) 2D” value in the assay on U87MG cells was determined as 60. For the same compound, the distribution within spheroid result in the assay with U87MG spheroids [2] was “primarily localized in the outer regions of the spheroids”.
